16 compounds from PubChem BioAssay (NCI) can be followed below.

Where “and” joins values, the source holds several entries; their conditions need not be identical. Equal values may be shown once.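 Exposure lasted 48 hours, with cells grown in 96-well plates and compounds tested at five concentrations. GI50: concentration for 50% inhibition of growth. TGI denotes the concentration required for complete inhibition of growth.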 *1 amine or outer side, *2 acyl side, *3 side chain or, on linkers, in order; H or OH if unused. Where a SMILES comes first, the peptide text is derived from it. Bridges are numbered along the chain shown (N, C = ends). [ ]: non-standard residue; d: D form. ξ: configuration not given here. X4 = CCC(C)C(N[*:1])C(O)CC(=O)O[C@H](C(=O)C(C)C(=O)[*:2])C(C)C; NMeY = CN[C@@H](Cc1ccc(O)cc1)C(=O)O; X9 = O=C([C@@H]1CC(O)CN1[*:1])[*:2]; ξNMeL = CNC(CC(C)C)C(=O)O; ξT = CC(O)C(N)C(=O)O

Among the test systems are NCI-H23 lung; OVCAR-4 ovarian; SNB-75 CNS; MOLT-4 leukemia; SK-MEL-28 melanoma; HOP-92 NSCLC; HCT-116 colon; NCI-H226 lung; DU-145 prostate.
What all share (experiment): growth of human tumour cells (NCI), 48 h

With `Cc1cc2c(C(C)C)c(O)c(O)c3coc(/c1=c1/c(C)cc4c(C(C)C)c(=O)c(=O)c5coc1c45)c32`, the TGI with NCI-H23 lung is 9.2 µM; in the experiment on OVCAR-4 ovarian, 22.8 µM; in the experiment with SNB-75 CNS, 23.1 µM; in the experiment on MOLT-4 leukemia, 17.4 µM; in the experiment with SK-MEL-28 melanoma, 22.2 µM; with HOP-92 NSCLC, 7.11 µM. Moreover, the TGI in the experiment with HCT-116 colon amounted to 10.8 µM; in the experiment on NCI-H226 lung, 22.9 µM.

`Cc1ccc2sc3cc(=O)cc(C)c-3nc2c1`: the TGI with NCI-H23 lung is more than 100 µM; with OVCAR-4 ovarian it was 52.4 µM; in the experiment on SNB-75 CNS it was more than 100 µM; in the experiment with MOLT-4 leukemia, more than 100 µM; in the experiment on SK-MEL-28 melanoma it was more than 100 µM; in the experiment with HOP-92 NSCLC it was more than 100 µM. Besides, the TGI in the experiment with HCT-116 colon and in the experiment with NCI-H226 lung was more than 100 µM throughout.

Regarding `N=C(c1ccccc1)N1CCCCC1`, the TGI with NCI-H23 lung, in the experiment on OVCAR-4 ovarian, in the experiment with SNB-75 CNS, in the experiment on SK-MEL-28 melanoma, in the experiment on HCT-116 colon and in the experiment with NCI-H226 lung was more than 100 µM in each case.

As to `O=S(=O)(O)C(F)(F)C(F)(F)C(F)(F)C(F)(F)F`, the TGI with NCI-H23 lung, in the experiment on OVCAR-4 ovarian, with SNB-75 CNS, in the experiment on MOLT-4 leukemia, in the experiment on HOP-92 NSCLC and in the experiment on HCT-116 colon was more than 100 µM throughout.

Turning to `CCNC(=O)C(O)C1(O)CCC2[C@@H]3CCC4=CC(=O)C=C[C@]4(C)C3[C@@H](O)C[C@@]21C` (stereo partly drawn), the TGI with NCI-H23 lung, in the experiment with OVCAR-4 ovarian, in the experiment on SNB-75 CNS, with MOLT-4 leukemia, in the experiment on SK-MEL-28 melanoma and in the experiment with HCT-116 colon was more than 100 µM in each case. The TGI in the experiment on NCI-H226 lung was more than 100 µM.

Turning to `C/C(=N\NC(N)=S)c1ccc2c(c1)OCO2`, the TGI with NCI-H23 lung, in the experiment with SNB-75 CNS, in the experiment with MOLT-4 leukemia, with SK-MEL-28 melanoma, in the experiment with HOP-92 NSCLC and with HCT-116 colon was more than 100 µM each time. The TGI with NCI-H226 lung is more than 100 µM.

For `CCC(C)C1NC(=O)C(NC(=O)C(CC(C)C)N(C)C(=O)[C@@H]2CC(O)CN2)C(C)OC(=O)[C@H](Cc2ccc(OC)cc2)N(C)C(=O)[C@@H]2CCCN2C(=O)[C@H](CC(C)C)NC(=O)C(C)C(=O)[C@H](C(C)C)OC(=O)CC1O` (stereo partly drawn) (H-[X9][ξNMeL][ξT][X4]LP[NMeY](Me); ester 3-C), the figures for the GI50 with DU-145 prostate and in the experiment on NCI-H226 lung were 0.0149 µM and 0.0302 µM, respectively. For the same compound, the TGI is 0.398 µM and 0.55 µM in the experiment on DU-145 prostate; 0.091 µM and 0.704 µM in the experiment with OVCAR-4 ovarian; 0.119 µM and 0.166 µM in the experiment on SNB-75 CNS; 0.0426 µM and 0.0387 µM in the experiment with MOLT-4 leukemia; 0.0194 µM and 0.106 µM in the experiment with SK-MEL-28 melanoma; 0.242 µM and 0.0658 µM in the experiment on HOP-92 NSCLC. For the same compound, the TGI with NCI-H226 lung is 0.0804 µM and 0.355 µM.

As for `CCCOc1ccc(/C=C/c2cc(OC)c(OC)c(OC)c2)cc1`, the TGI in the experiment with NCI-H23 lung was 0.706 µM; in the experiment on OVCAR-4 ovarian it was more than 72.9 µM; in the experiment with SNB-75 CNS it was 0.603 µM; in the experiment with MOLT-4 leukemia, 13.2 µM; in the experiment with SK-MEL-28 melanoma it was more than 100 µM; in the experiment on HOP-92 NSCLC it was 7.41 µM. Moreover, the TGI in the experiment on HCT-116 colon was more than 33.3 µM; with NCI-H226 lung it was 2.54 µM.

Consider `O=c1cc/c(=N\Nc2ccccc2)c(=O)/c1=N/Nc1ccccc1`, for which the GI50 in the experiment with DU-145 prostate, in the experiment with NCI-H23 lung, with OVCAR-4 ovarian, with SNB-75 CNS, in the experiment on MOLT-4 leukemia and with HOP-92 NSCLC was more than 50 µM in each case. The GI50 in the experiment on HCT-116 colon and with NCI-H226 lung was more than 50 µM in each case. The TGI with DU-145 prostate, in the experiment on NCI-H23 lung, in the experiment with OVCAR-4 ovarian, in the experiment with SNB-75 CNS, with MOLT-4 leukemia and in the experiment on HOP-92 NSCLC was more than 50 µM in each case. For the same compound, the TGI with HCT-116 colon and in the experiment with NCI-H226 lung was more than 50 µM throughout.

Consider `O=S(=O)(CC1=NC2C=CC=CC2N=C1)NCc1ccccc1` (stereo not drawn), for which the TGI in the experiment on NCI-H23 lung, in the experiment on OVCAR-4 ovarian, in the experiment on SNB-75 CNS, with MOLT-4 leukemia, with SK-MEL-28 melanoma and in the experiment on HOP-92 NSCLC was more than 100 µM each time. The TGI in the experiment with HCT-116 colon and in the experiment on NCI-H226 lung was more than 100 µM in each case.

On to `CSC(=S)N(C)c1nc(=[N+](C)C)ss1`, for which the TGI in the experiment on NCI-H23 lung, in the experiment on OVCAR-4 ovarian, in the experiment on SNB-75 CNS, with MOLT-4 leukemia, in the experiment on SK-MEL-28 melanoma and in the experiment on HOP-92 NSCLC was more than 100 µM throughout. For the same compound, the TGI with HCT-116 colon and in the experiment with NCI-H226 lung was more than 100 µM each time.

`C/C(=N\NC(N)=S)c1ccc(/C(C)=N/NC(N)=S)cc1`: the TGI in the experiment with NCI-H23 lung, in the experiment with SNB-75 CNS, in the experiment on MOLT-4 leukemia, in the experiment with SK-MEL-28 melanoma, with HOP-92 NSCLC and with HCT-116 colon was more than 100 µM throughout. The same compound had a TGI with NCI-H226 lung of more than 100 µM.

With `CCCCCCCCCCCCCCCC(=O)NC1CCc2cc(O)c(O)c(O)c2-c2ccc(SC)c(=O)cc21` (stereo not drawn), the TGI was 16.6 µM with NCI-H23 lung; 28.9 µM with OVCAR-4 ovarian; 9.13 µM in the experiment with SNB-75 CNS; more than 71.8 µM with MOLT-4 leukemia; 20.9 µM in the experiment with SK-MEL-28 melanoma; 8.28 µM with HOP-92 NSCLC. For the same compound, the results for the TGI in the experiment on HCT-116 colon and with NCI-H226 lung were 17.2 µM and 27.4 µM, respectively.

`COC(=O)c1c/c(=N\NC(=O)CC(=O)Nc2ccccc2Cl)c2ccccc2o1`: the TGI in the experiment with NCI-H23 lung, with OVCAR-4 ovarian, in the experiment with SNB-75 CNS, in the experiment with MOLT-4 leukemia, in the experiment with SK-MEL-28 melanoma and in the experiment on HCT-116 colon was more than 100 µM throughout. Moreover, the TGI with NCI-H226 lung is more than 100 µM.

For `Cc1cccc(C(C)(C)C)c1NC(=O)CC1C(=O)Nc2ccccc2S1=O` (stereo not drawn), the TGI in the experiment with NCI-H23 lung was 67.6 µM; with OVCAR-4 ovarian, 80.1 µM; with SNB-75 CNS, more than 100 µM; with MOLT-4 leukemia, 69.2 µM; in the experiment with SK-MEL-28 melanoma it was more than 100 µM; in the experiment with HOP-92 NSCLC, more than 100 µM. For the same compound, the TGI in the experiment with HCT-116 colon and in the experiment with NCI-H226 lung was more than 100 µM in each case.

Regarding `O=C(CC(=O)Nc1ccc(Cl)cc1)NNCC(=O)Nc1nc(-c2ccccc2)cs1`, the TGI in the experiment on NCI-H23 lung, with OVCAR-4 ovarian, with SNB-75 CNS, in the experiment with MOLT-4 leukemia, with SK-MEL-28 melanoma and in the experiment with HCT-116 colon was more than 100 µM throughout. This compound showed a TGI with NCI-H226 lung of more than 100 µM.
